Where a SMILES comes first, the peptide text is derived from it. Bridges are numbered along the chain shown (N, C = ends).
Key:
trypsin [1] = assay: Protease susceptibility assay; assay type: in vitro ADME; conditions: 80 μM peptide, pH 8.2, room temperature, up to 60 min, analytical HPLC
trypsin [2] = conditions: cited from earlier work

Row | Compound | susceptibility to trypsin (trypsin [1]) | susceptibility to trypsin, literature (trypsin [2])
1 | CC[C@H](C)[C@@H]1NC(=O)[C@H](CCC(=O)O)NC(=O)[C@@H]2CSSC[C@@H]3NC(=O)[C@H](Cc4ccc(O)cc4)NC(=O)[C@@H](NC(=O)[C@@H](NC(=O)[C@H](C)N)[C@@H](C)O)CSSC[C@@H](C(=O)N[C@@H](CCCNC(=N)N)C(=O)O)NC(=O)[C@H](CSSC[C@H](NC(=O)[C@H](CCCNC(=N)N)NC(=O)CNC(=O)[C@H]([C@@H](C)O)NC(=O)[C@H](CCCNC(=N)N)NC3=O)C(=O)N[C@@H](C)C(=O)N[C@@H]([C@@H](C)O)C(=O)N[C@@H](CCCNC(=N)N)C(=O)N[C@@H](CCC(=O)O)C(=O)N[C@@H](CO)C(=O)N[C@@H](CC(C)C)C(=O)N[C@@H](CO)C(=O)NCC(=O)N[C@@H](C(C)C)C(=O)N2)NC(=O)[C@H](CC(C)C)NC(=O)[C@H](CCCNC(=N)N)NC(=O)[C@H](Cc2ccc(O)cc2)NC(=O)[C@H](CC(C)C)NC(=O)[C@H](CCCNC(=N)N)NC(=O)CNC(=O)[C@H](CO)NC1=O [HD5ox] (H-ATCYCRTGRCATRESLSGVCEISGRLYRLCCR-OH; disulfide 3-31, 5-20, 10-30) | not accepted as a substrate | very poor substrate
2 | CC[C@H](C)[C@H](NC(=O)[C@H](CCC(=O)O)NC(=O)[C@H](CS)NC(=O)[C@@H](NC(=O)CNC(=O)[C@H](CO)NC(=O)[C@H](CC(C)C)NC(=O)[C@H](CO)NC(=O)[C@H](CCC(=O)O)NC(=O)[C@H](CCCNC(=N)N)NC(=O)[C@@H](NC(=O)[C@H](C)NC(=O)[C@H](CS)NC(=O)[C@H](CCCNC(=N)N)NC(=O)CNC(=O)[C@@H](NC(=O)[C@H](CCCNC(=N)N)NC(=O)[C@H](CS)NC(=O)[C@H](Cc1ccc(O)cc1)NC(=O)[C@H](CS)NC(=O)[C@@H](NC(=O)[C@H](C)N)[C@@H](C)O)[C@@H](C)O)[C@@H](C)O)C(C)C)C(=O)N[C@@H](CO)C(=O)NCC(=O)N[C@@H](CCCNC(=N)N)C(=O)N[C@@H](CC(C)C)C(=O)N[C@@H](Cc1ccc(O)cc1)C(=O)N[C@@H](CCCNC(=N)N)C(=O)N[C@@H](CC(C)C)C(=O)N[C@@H](CS)C(=O)N[C@@H](CS)C(=O)N[C@@H](CCCNC(=N)N)C(=O)O [HD5red] (H-ATCYCRTGRCATRESLSGVCEISGRLYRLCCR-OH) | rapid proteolytic cleavage | 

— PMC3179267 (Biochemistry, 2011)
